According to PubChem BioAssay (NCI):
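A five-concentration, 48-hour dose response in 96-well plates underlies each endpoint, interpolated linearly between surrounding concentrations. GI50 marks 50% less growth. At the TGI there is no net growth.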

What was measured:
Assay in all cases: DTP human tumour cell line panel, 48 h
SNB-19 CNS = test system: SNB-19 CNS
COLO 205 colon = test system: COLO 205 colon
CAKI-1 renal = test system: CAKI-1 renal
BT-549 breast = test system: BT-549 breast
MOLT-4 leukemia = test system: MOLT-4 leukemia
NCI-H226 lung = test system: NCI-H226 lung
SR leukemia = test system: SR leukemia
HCT-116 colon = test system: HCT-116 colon
T-47D breast = test system: T-47D breast
NCI-H23 lung = test system: NCI-H23 lung
MDA-MB-435 = test system: MDA-MB-435
SK-MEL-2 melanoma = test system: SK-MEL-2 melanoma
HCC-2998 colon = test system: HCC-2998 colon
SF-268 CNS = test system: SF-268 CNS
SK-MEL-5 melanoma = test system: SK-MEL-5 melanoma
A498 renal = test system: A498 renal
HS 578T breast = test system: HS 578T breast
HCT-15 colon = test system: HCT-15 colon
M14 melanoma = test system: M14 melanoma
TK-10 renal = test system: TK-10 renal
SK-OV-3 ovarian = test system: SK-OV-3 ovarian
786-0 renal = test system: 786-0 renal
KM12 colon = test system: KM12 colon
MDA-MB-231 breast = test system: MDA-MB-231 breast
HL-60(TB) leukemia = test system: HL-60(TB) leukemia
K-562 leukemia = test system: K-562 leukemia
RPMI-8226 leukemia = test system: RPMI-8226 leukemia
ACHN renal = test system: ACHN renal
OVCAR-8 ovarian = test system: OVCAR-8 ovarian
SK-MEL-28 melanoma = test system: SK-MEL-28 melanoma
LOX IMVI melanoma = test system: LOX IMVI melanoma
SF-295 CNS = test system: SF-295 CNS
UACC-257 melanoma = test system: UACC-257 melanoma
OVCAR-4 ovarian = test system: OVCAR-4 ovarian
CCRF-CEM leukemia = test system: CCRF-CEM leukemia
NCI/ADR-RES ovarian = test system: NCI/ADR-RES ovarian
NCI-H460 lung = test system: NCI-H460 lung
HOP-92 NSCLC = test system: HOP-92 NSCLC
OVCAR-3 ovarian = test system: OVCAR-3 ovarian
MCF7 breast = test system: MCF7 breast
HOP-62 NSCLC = test system: HOP-62 NSCLC
DU-145 prostate = test system: DU-145 prostate
A549 NSCLC = test system: A549 NSCLC
UACC-62 melanoma = test system: UACC-62 melanoma
MALME-3M melanoma = test system: MALME-3M melanoma
SNB-75 CNS = test system: SNB-75 CNS
OVCAR-5 ovarian = test system: OVCAR-5 ovarian
UO-31 renal = test system: UO-31 renal
SN12C renal = test system: SN12C renal
IGROV1 ovarian = test system: IGROV1 ovarian
EKVX NSCLC = test system: EKVX NSCLC
PC-3 prostate = test system: PC-3 prostate
U251 CNS = test system: U251 CNS
SW-620 colon = test system: SW-620 colon
NCI-H522 lung = test system: NCI-H522 lung
RXF 393 renal = test system: RXF 393 renal
SF-539 CNS = test system: SF-539 CNS
HT29 colon = test system: HT29 colon

## COc1ccc(/C=N\NC(=O)CN2CCN(c3cc4c(cc3F)c(=O)c(C(=O)N/N=C/c3ccc(OC)c(OC)c3)cn4C3CC3)CC2)cc1OC
SNB-19 CNS
  GI50: 3.11 µM
  TGI: 12.5 µM
COLO 205 colon
  GI50: 3380 nM
  TGI: 14.8 µM
CAKI-1 renal
  GI50: 9.49 µM
  TGI: 91.9 µM
BT-549 breast
  GI50: 1.78 µM
  TGI: 3.89 µM
MOLT-4 leukemia
  GI50: 3.56 µM
  TGI: > 100 µM
NCI-H226 lung
  GI50: 4.44 µM
  TGI: 24 µM
SR leukemia
  GI50: 3110 nM
  TGI: > 100 µM
HCT-116 colon
  GI50: 3150 nM
  TGI: 11.4 µM
T-47D breast
  GI50: 2.55 µM
  TGI: 8.78 µM
NCI-H23 lung
  GI50: 3.1 µM
  TGI: 10.8 µM
MDA-MB-435
  GI50: 2020 nM
  TGI: 3.97 µM
SK-MEL-2 melanoma
  GI50: 2720 nM
  TGI: 7.28 µM
HCC-2998 colon
  GI50: 3.52 µM
  TGI: 12.7 µM
SF-268 CNS
  GI50: 2.53 µM
  TGI: 7.12 µM
SK-MEL-5 melanoma
  GI50: 3690 nM
  TGI: 15.8 µM
A498 renal
  GI50: 1.4 µM
  TGI: 23.4 µM
HS 578T breast
  GI50: 2.51 µM
  TGI: 8.99 µM
HCT-15 colon
  GI50: > 100000 nM
  TGI: > 100 µM
M14 melanoma
  GI50: 3530 nM
  TGI: 11.9 µM
TK-10 renal
  GI50: 23.6 µM
  TGI: > 100 µM
SK-OV-3 ovarian
  GI50: 3.22 µM
  TGI: 9.67 µM
786-0 renal
  GI50: 4.83 µM
  TGI: 22.6 µM
KM12 colon
  GI50: 3.42 µM
  TGI: 10.7 µM
MDA-MB-231 breast
  GI50: 2330 nM
  TGI: 6.31 µM
HL-60(TB) leukemia
  GI50: 3.36 µM
  TGI: 18.2 µM
K-562 leukemia
  GI50: 3810 nM
  TGI: > 100 µM
RPMI-8226 leukemia
  GI50: 2.77 µM
  TGI: 8.82 µM
ACHN renal
  GI50: > 100 µM
  TGI: > 100 µM
OVCAR-8 ovarian
  GI50: 3.81 µM
  TGI: 81.1 µM
SK-MEL-28 melanoma
  GI50: 2000 nM
  TGI: 3.86 µM
LOX IMVI melanoma
  GI50: 3220 nM
  TGI: 11.3 µM
SF-295 CNS
  GI50: 17.9 µM
  TGI: 63 µM
UACC-257 melanoma
  GI50: 3380 nM
  TGI: 37.6 µM
OVCAR-4 ovarian
  GI50: 3.17 µM
  TGI: 11 µM
CCRF-CEM leukemia
  GI50: 3.31 µM
  TGI: > 100 µM
NCI/ADR-RES ovarian
  GI50: > 100 µM
  TGI: > 100 µM
NCI-H460 lung
  GI50: 2600 nM
  TGI: 6.87 µM
HOP-92 NSCLC
  GI50: 2250 nM
  TGI: 6.9 µM
OVCAR-3 ovarian
  GI50: 2.65 µM
  TGI: 7.26 µM
MCF7 breast
  GI50: 3.21 µM
  TGI: > 100 µM
HOP-62 NSCLC
  GI50: 2.74 µM
  TGI: 9.54 µM
DU-145 prostate
  GI50: 3.54 µM
  TGI: 12 µM
A549 NSCLC
  GI50: 4.3 µM
  TGI: 75.9 µM
UACC-62 melanoma
  GI50: 2210 nM
  TGI: 4.83 µM
MALME-3M melanoma
  GI50: 1.81 µM
  TGI: 3.62 µM
SNB-75 CNS
  GI50: 1.56 µM
  TGI: 3.49 µM
OVCAR-5 ovarian
  GI50: 2.39 µM
  TGI: 6.94 µM
UO-31 renal
  GI50: > 100 µM
  TGI: > 100 µM
SN12C renal
  GI50: 2.72 µM
  TGI: 8.21 µM
IGROV1 ovarian
  GI50: 3.1 µM
  TGI: 17.1 µM
EKVX NSCLC
  GI50: 6.06 µM
  TGI: > 100 µM
PC-3 prostate
  GI50: 2.76 µM
  TGI: 9.53 µM
U251 CNS
  GI50: 2.29 µM
  TGI: 6.29 µM
SW-620 colon
  GI50: 3330 nM
  TGI: 16.8 µM
NCI-H522 lung
  GI50: 3.66 µM
  TGI: > 100 µM
RXF 393 renal
  GI50: 3790 nM
  TGI: 15.2 µM
SF-539 CNS
  GI50: 2.38 µM
  TGI: 6.46 µM
HT29 colon
  GI50: 3460 nM
  TGI: > 100 µM

## O=c1c2cc(Cl)ccc2oc2ccc(OCCCCCN3CCCCC3)cc12
SNB-19 CNS
  GI50: 6.83 µM
  TGI: 13.5 µM
COLO 205 colon
  GI50: 1000 nM
  TGI: 2.29 µM
CAKI-1 renal
  GI50: 3.24 µM
  TGI: 9.84 µM
BT-549 breast
  GI50: 6.26 µM
  TGI: 12.8 µM
MOLT-4 leukemia
  GI50: 3.16 µM
  TGI: 10.7 µM
NCI-H226 lung
  GI50: 8.74 µM
  TGI: 18.6 µM
SR leukemia
  GI50: 1470 nM
  TGI: 5.47 µM
HCT-116 colon
  GI50: 1750 nM
  TGI: 6.8 µM
T-47D breast
  GI50: 7.21 µM
  TGI: 17 µM
NCI-H23 lung
  GI50: 5.37 µM
  TGI: 12 µM
MDA-MB-435
  GI50: 1020 nM
  TGI: 2.37 µM
SK-MEL-2 melanoma
  GI50: 2090 nM
  TGI: 7.96 µM
HCC-2998 colon
  GI50: 8.55 µM
  TGI: 16.9 µM
SF-268 CNS
  GI50: 5.28 µM
  TGI: 12.2 µM
SK-MEL-5 melanoma
  GI50: 892 nM
  TGI: 1.91 µM
A498 renal
  GI50: 6.28 µM
  TGI: 12.8 µM
HS 578T breast
  GI50: 6.16 µM
  TGI: 15.1 µM
HCT-15 colon
  GI50: 1260 nM
  TGI: 3.45 µM
M14 melanoma
  GI50: 1170 nM
  TGI: 2.84 µM
TK-10 renal
  GI50: 8.06 µM
  TGI: 15 µM
SK-OV-3 ovarian
  GI50: 6.96 µM
  TGI: 13.4 µM
786-0 renal
  GI50: 5.91 µM
  TGI: 12.5 µM
KM12 colon
  GI50: 2.68 µM
  TGI: 9 µM
MDA-MB-231 breast
  GI50: 3150 nM
  TGI: 9.77 µM
HL-60(TB) leukemia
  GI50: 6.24 µM
  TGI: 15.4 µM
K-562 leukemia
  GI50: 1760 nM
  TGI: 7.55 µM
RPMI-8226 leukemia
  GI50: 3.6 µM
  TGI: 12.4 µM
ACHN renal
  GI50: 5.28 µM
  TGI: 11.2 µM
OVCAR-8 ovarian
  GI50: 6.09 µM
  TGI: 14.2 µM
SK-MEL-28 melanoma
  GI50: 1090 nM
  TGI: 2.66 µM
LOX IMVI melanoma
  GI50: 967 nM
  TGI: 2.12 µM
SF-295 CNS
  GI50: 6.62 µM
  TGI: 13.5 µM
UACC-257 melanoma
  GI50: 1300 nM
  TGI: 3.2 µM
OVCAR-4 ovarian
  GI50: 5.5 µM
  TGI: 11.9 µM
CCRF-CEM leukemia
  GI50: 3.92 µM
  TGI: 11.3 µM
NCI/ADR-RES ovarian
  GI50: 5.47 µM
  TGI: 24.8 µM
NCI-H460 lung
  GI50: 1730 nM
  TGI: 5.55 µM
HOP-92 NSCLC
  GI50: 3550 nM
  TGI: 10.3 µM
OVCAR-3 ovarian
  GI50: 5.47 µM
  TGI: 11.5 µM
MCF7 breast
  GI50: 5.24 µM
  TGI: 14.6 µM
HOP-62 NSCLC
  GI50: 7.03 µM
  TGI: 14.4 µM
DU-145 prostate
  GI50: 6.4 µM
  TGI: 12.7 µM
A549 NSCLC
  GI50: 4.78 µM
  TGI: 10.9 µM
UACC-62 melanoma
  GI50: 1010 nM
  TGI: 2.06 µM
MALME-3M melanoma
  GI50: 6.86 µM
  TGI: 14.1 µM
SNB-75 CNS
  GI50: 7.44 µM
  TGI: 14 µM
OVCAR-5 ovarian
  GI50: 5.17 µM
  TGI: 11.2 µM
UO-31 renal
  GI50: 3.98 µM
  TGI: 10.4 µM
SN12C renal
  GI50: 5.59 µM
  TGI: 11.9 µM
IGROV1 ovarian
  GI50: 6.77 µM
  TGI: 14.4 µM
EKVX NSCLC
  GI50: 6.25 µM
  TGI: 13.2 µM
PC-3 prostate
  GI50: 6.05 µM
  TGI: 12.7 µM
U251 CNS
  GI50: 6.12 µM
  TGI: 12.7 µM
SW-620 colon
  GI50: 1550 nM
  TGI: 5.09 µM
NCI-H522 lung
  GI50: 3.48 µM
  TGI: 10.4 µM
RXF 393 renal
  GI50: 1860 nM
  TGI: 7.2 µM
SF-539 CNS
  GI50: 4.21 µM
  TGI: 10.6 µM
HT29 colon
  GI50: 1270 nM
  TGI: 3.31 µM
